According to patent US6528251B2, “Method of managing the chemotherapy of patients who are HIV positive based on the phenotypic drug sensitivity of human HIV strains” (Virco N.V., priority 1996, dated 2003):
Where two headings read alike, the source gives them in different places.

Assays:
Type in all cases: cell-based, HIV-1
[1] = system: Recombinant wild type HIV strain recIIIB; test: Antiviral MT4/MTT assay with reference virus recIIIB; settings: read-out: Anti-HIV-1 activity IC50 (μM) recIIIB ref (2)
[2] = system: recombinant virus from patient viral RNA (Example 5, 3TC resistant HIV strains); test: Recombinant virus assay (MT4/MTT), patient of Example 5 (AZT, then AZT+3TC therapy); settings: for IC50: Human immunodeficiency virus 1, Table 1, Example 5 patient virus
Description: (§1) RNA was isolated from 100 μl of plasma according to the method described by Boom, R. et al. (1990, supra), and was reverse transcribed with the GeneAmp reverse transcriptase kit (Perkin Elmer) as described by the manufacturer and using an HIV-1 specific downstream primer (OUT3: 5′-CATTGCTCTCCAATTACTGTGATATTTCTCATC-3′; SEQ ID NO: 1). PCR on reverse transcribed RNA was performed with inner and outer primers as described by Kellam, P. and Larder, B. A. (1994, supra). After chloroform extraction and centrifugation on Centricon 100 columns or centrifugation on anion-exchange spin columns (Quiagen), the isolated PCR product was ready for use in the transfection reactions.
(§2) MT4 cells were subcultured at a density of 250,000 cells/ml before transfection (exponential growth phase). Cells were pelleted and resuspended in phosphate buffered saline (PBS) at a concentration of […]. A 0.8 ml portion (2.5 10E6 cells/ml) was used for each transfection. Transfection was performed with the Bio-Rad Gene pulser making use of 0.4 cm electrode cuvettes. Cells were electroporated in the presence of […] of linearised pHIVΔRT plasmid and approximately 5 μg of RT PCR product at 250SF and 300 V, followed by a 30-min incubation at room temperature. Subsequently, 10 ml of fresh culture medium was added to the cell suspension and incubation was performed at 37° C. in a humidified atmosphere of 5% CO2.
(§3) During 7 to 10 days following the transfection, cells were monitored for the appearance of cytopathogenic effect (CPE). In the absence thereof, cells were subcultured in different flasks. Subsequently, culture supernatants of transfected cells were used to create a stock of recombinant virus and stored in 1.5 ml aliquots at −70° C.
(§4) After titration of the new viruses, the stocks were used for antiviral experiments in the presence of serial dilutions of different HIV inhibitors. Titres of the harvested supematants were determined by limited serial dilution titration of virus in MT4 cells.
(§5) Viruses with a useful titre were used in antiviral experiments. For this purpose, 96-well microtitre plates were filled with 100μl of complete culture medium. Subsequently, stock solutions of compounds were added in 25 μl volumes to series of duplicate wells. HIV- and mock-infected cell samples were included for each drug (or drug combination). Exponentially growing MT4 cells were then transferred to the microtitre plates at a density of 150,000 cells/ml. The cell cultures were then incubated at 37° C. in a humidified atmosphere of 5% CO2. Five days after infection, the viability of the mock- and HIV-infected cells was examined spectrophotometrically by the M1T method (Pauwels, R. et al. J. Virol. Meth. (1988), 20: 309-321) as described in Section 6 below.
(§6) To each well of the microtiter plates, 20 μl of a solution of MTT (7.5 mg/ml in PBS) was added. The plates were further incubated at 37° C. for 1 h. Then, 150 μl of medium was removed without disturbing the MT4 cell clusters containing the formazan crystals. Solubilization of the formazan crystals was achieved by adding 100 μl 5% Triton X-100 in acidified isopropanol (5 ml concentrated HCl per liter solvent). Complete dissolution of the formazan crystals was obtained after the plates had been placed on a plate shaker for 10 min. Finally the absorbances were read at two wavelengths (540 and 690 nm). From these optical density (OD) data, 50% inhibitory (IC50) and 50% cytotoxic (CC50) concentrations were derived.
An HIV infected patient who received AZT from December 1989 until an undocumented later date, and switched to a combined chemotherapy of AZT+3TC (1:1) from February 1994 until October 1995 donated plasma whose susceptibility to a number of RT inhibitors was determined according to the above described protocol of Example 1. Recombinant wild type HIV strain recIIIB was used in said protocol as a reference HIV virus.

[3] = system: recombinant virus from patient viral RNA (Example 6, drug-naive patient); test: Recombinant virus assay (MT4/MTT), drug-naive patient of Example 6; settings: for IC50: Human immunodeficiency virus 1, Table 2, Example 6 patient virus
Description: as §1, §2, §3, §4, §5, §6
A drug-naive HIV infected patient donated plasma whose susceptibility to a number of RT inhibitors was determined according to the above described protocol of Example 1. Recombinant wild type HIV strain recIIIB was used in said protocol as a reference HIV virus.

[4] = system: recombinant virus from patient viral RNA (Example 7, drug-naive patient); test: Recombinant virus assay (MT4/MTT), drug-naive patient of Example 7; settings: for IC50: Human immunodeficiency virus 1, Table 3, Example 7 patient virus
Description: as §1, §2, §3, §4, §5, §6
A drug-naive HIV-infected patient donated plasma whose susceptibility to a number of RT inhibitors was determined according to the protocol set out in Example 1. Recombinant wild type HIV strain recIIIB was used as a reference HIV virus.

[5] = system: recombinant virus from patient viral RNA (Example 8); test: Recombinant virus assay (MT4/MTT), patient of Example 8 (therapy history AZT, 3TC and loviride); settings: for IC50: Human immunodeficiency virus 1, Table 4, Example 8 patient virus
Description: as §1, §2, §3, §4, §5, §6
(§7) An HIV-infected patient with a therapy history including AZT, 3TC and loviride donated plasma whose susceptibility to a number of RT inhibitors was determined according to the protocol set out in Example 1. Recombinant wild type HIV strain recIIIB was used as a reference HIV virus.

[6] = system: recombinant virus from patient viral RNA (Example 9); test: Recombinant virus assay (MT4/MTT), patient of Example 9 (multiple nucleoside analogue RT-inhibitors); settings: for IC50: Human immunodeficiency virus 1, Table 5, Example 9 patient virus
Description: as §1, §2, §3, §4, §5, §6
as §7, with “multiple nucleoside analogue RT-inhibitors” for “AZT, 3TC and loviride”

[7] = MT4 cells, read-out: Anti-HIV-1 activity IC50 (μM) Exp. 1
[8] = MT4 cells, read-out: Anti-HIV-1 activity IC50 (μM) Exp. 2
[9] = mean of Exp. 1 and 2, read-out: Anti-HIV-1 activity IC50 (μM) Mean (1)
[10] = mean, read-out: Anti-HIV-1 activity IC50 (μM) Mean (1)

**Q.** Which results are given for Cc1cn([C@H]2C[C@H](N=[N+]=[N-])[C@@H](CO)O2)c(=O)[nH]c1=O [AZT, zidovudine]?
**A.** IC50 ([1]; Human immunodeficiency virus 1, Table 1, reference run of Example 5): 0.004 µM; IC50 ([1]; Human immunodeficiency virus 1, Table 2, reference run of Example 6): 0.06 µM; IC50 ([1]; Human immunodeficiency virus 1, Table 3, reference run of Example 7): 0.023 µM; IC50 ([1]; Human immunodeficiency virus 1, Table 4, reference run of Example 8): 0.084 µM; IC50 ([1]; Human immunodeficiency virus 1, Table 5, reference run of Example 9): 0.291 µM; IC50 ([1]; Human immunodeficiency virus 1, Table 6, reference run of Example 10): 0.041 µM; IC50 ([1]; Human immunodeficiency virus 1, Table 7, reference run of Example 11): 0.047 µM; IC50 ([1]; Human immunodeficiency virus 1, Table 8, reference run of Example 12): 0.041 µM; IC50 [2, 7]: 0.001 µM; IC50 [2, 8]: 0.002 µM; IC50 [2, 9]: 0.002 µM; ratio (1)/(2) ([2]; Table 1, patient mean IC50 / recIIIB IC50, Example 5): 0.4; IC50 [3, 7]: 0.04 µM; IC50 [3, 8]: 0.05 µM; IC50 [3, 9]: 0.05 µM; ratio (1)/(2) ([3]; Table 2, patient mean IC50 / recIIIB IC50, Example 6): 1; IC50 [4, 7]: 0.052 µM; IC50 [4, 8]: 0.05 µM; IC50 [4, 10]: 0.051 µM; ratio (1)/(2) ([4]; Table 3, patient mean IC50 / recIIIB IC50, Example 7): 2; IC50 [5, 7]: 18.3 µM; IC50 [5, 8]: 22.3 µM; IC50 [5, 10]: 20.3 µM; ratio (1)/(2) ([5]; Table 4, patient mean IC50 / recIIIB IC50, Example 8): 241; IC50 [6, 7]: > 100 µM; IC50 [6, 10]: > 100 µM; ratio (1)/(2) ([6]; Table 5, patient mean IC50 / recIIIB IC50, Example 9): >344
